Experimental data as given in patent US20250388643A1, “GLUCAGON-LIKE PEPTIDE-2 COMPOSITIONS AND METHODS OF MAKING AND USING SAME” (Amunix Pharmaceuticals, Inc., priority 2011, published 2025).
Read-outs that look alike come from different tables or passages of the source.

Columns and labels:
[1] = system: small intestine growth in rats; experiment: Intestinotrophic growth in normal rats (small intestine weight and length); type: in vivo, rat; conditions: normal Sprague-Dawley rats, SC 12 days; peptide 12.5 nmol/kg twice daily, fusion protein 25 nmol/kg once daily
Method: To determine the intestinotrophic properties of GLP2-XTEN, small intestine growth in rats was measured as a primary pharmacodynamic endpoint. […] GLP2-2G-XTEN was dosed at 25 nmol/kg once daily for 12 days. After sacrifice, a midline incision was made, the small intestines were removed, stretched to their maximum length and the length recorded. The fecal material was flushed from the lumen and the small intestinal wet weight recorded. The small intestine length and weight data were analyzed with an ANOVA model with a Tukey/Kramer post-hoc test for pairwise comparisons, with significance at p=0.05.

[2] = system: DSS-induced intestinal colitis in C57Bl/6 mice; experiment: Murine acute DSS-induced colitis model; type: in vivo, mouse; conditions: DSS-treated mice
Method: To determine the efficacy of GLP2-XTEN, the GLP2-2G-XTEN-AE864 fusion protein was evaluated in a mouse model of intestinal inflammatory colitis. […] A naïve, non-treated control group (group 1) was given normal drinking water for the duration of the experiment. […] Tissues were fixed in formalin and then transferred to ethanol for staining and histopathology. The anatomical data was analyzed with an ANOVA model with a Tukey/Kramer post-hoc test for pairwise comparisons, with significance at p=0.05.

[3] = system: indomethacin-induced intestinal inflammation in Wistar rats; experiment: Rat Crohn's Disease indomethacin-induced intestinal inflammation model, Study 3; type: in vivo
Method: Study 3: A third indomethacin-induced inflammation study was performed to verify previous results and test additional dose regimens. Intestinal inflammation was induced in male Wistar rats (Harlan Sprague Dawley) using indomethacin administered on Days 0 and 1 of the experiment according to Table 21.
All treatments were administered per the schedule starting on Day-3 of the experiment. Body weights were determined daily. On Day 2 (24 hours post-2nd indomethacin dose), the animals were prepped for sacrifice and analysis. The small intestines were removed and the length of each was recorded. Quantitative histopathology was performed on a subset of samples. Rat small intestine samples consisted of a 3 cm section of proximal jejunum and a 3 cm section of mid-jejunum collected 15 cm and 30 cm from the pylorus, respectively. Samples were fixed in 10% neutral buffered formalin. Samples were trimmed into multiple sections without bias toward lesion presence or absence. These sections were placed in cassettes, embedded in paraffin, microtomed at approximately 4 microns thickness, and stained with hematoxylin and eosin (H&E). The slides were evaluated microscopically by a board certified veterinary pathologist and scored for villous height as well as infiltration/inflammation, mucosal atrophy, villi/crypt appearance, abscesses/ulceration. A 1 to 4 severity grading scale was used, where 1=minimal, 2=mild, 3=moderate, 4=marked/severe, reflecting the combination of the cellular reactions seen histopathologically. Small intestine length was analyzed with an ANOVA model with a Tukey/Kramer post-hoc test for pairwise comparisons, with significance at p=0.05. Non-parametric histology score variables were compared with the vehicle control using a Mann Whitney U test with a Bonferroni correction for the p-value to create an overall alpha of 0.05.

[4] = system: indomethacin-induced intestinal inflammation in Wistar rats; experiment: Rat Crohn's Disease indomethacin-induced intestinal inflammation model, Study 1; type: in vivo
Method: To determine the efficacy of GLP2-XTEN using single dose or qd dosing, the GLP2-2G-XTEN-AE864 fusion protein was evaluated in a rat model of Crohn's Disease of indomethacin-induced intestinal inflammation in three separate studies.
Study 1: Intestinal inflammation was induced in eighty male Wistar rats (Harlan Sprague Dawley) using indomethacin administered on Days 0 and 1 of the experiment. The rats were divided into seven treatment groups for treatment according to Table 19.
All treatments were administered per the schedule starting on Day −3 of the experiment. Body weights were determined daily. Groups 3 and 5 were dosed equimolar/day. On Day 2 (24 hours post-2nd indomethacin dose), the animals were prepped for sacrifice and analysis. Thirty minutes prior to sacrifice, the rats were injected intravenously with 1 ml 1% Evans Blue dye, in order to visualize ulcers and extent of inflammation by histopathology analysis. The rats were anesthetized (SOP 1810), blood samples were removed to determine the concentration of GLP-2-2G-XTEN using the anti-XTEN/anti-GLP2 ELISA method. The rats were euthanized then necropsied and scored by gross examination of the intestines for the presence of adhesions; i.e., none=0, mild=1, moderate=2, or severe=3. The small intestines were removed and the length of each was recorded. In each small intestine, a longitudinal incision was made and the interior was examined. The degree and length of the ulcerated area was recorded as a score; i.e., none=0, few=1, multiple=2, or continuous=3. For TNFα determination, intestinal samples were thawed and homogenized in a total of 20 ml with DPBS. The supernatants were equilibrated to room temperature and assayed for TNFα by ELISA (R&D Systems, Cat. RTA00, lot 281687, exp. 7 Sep. 2011). The samples for Group 1 were assayed undiluted. The samples for Groups 2-7 were diluted 1:4. For histopathology, the small intestines were gently washed with saline to remove the fecal material and were blotted to remove excess fluid. Each small intestine was weighed then processed for histopathology examination to quantitate the degree of inflammation; i.e., 0.0%=0, 1-33%=1, 34-66%=2, 67-100%=3.

[5] = system: indomethacin-induced intestinal inflammation in Wistar rats; type: in vivo, rat
Method: Study 2: Intestinal inflammation was induced in eighty male Wistar rats (Harlan Sprague Dawley) using indomethacin administered on Days 0 and 1 of the experiment. The rats were divided into eight treatment groups for treatment according to Table 20. All treatments were administered per the schedule starting on Day-3 of the experiment. Body weights were determined daily. On Day 2 (24 hours post-2nd indomethacin dose), the animals were prepped for sacrifice and analysis. Thirty minutes prior to sacrifice, the rats were injected intravenously with 1 ml 1% Evans Blue dye, in order to visualize ulcers and extent of inflammation by histopathology analysis. The rats were anesthetized and blood samples were removed to determine the concentration of GLP-2-2G-XTEN using the anti-XTEN/anti-GLP2 ELISA method. The rats were euthanized then necropsied and scored by gross examination of the intestines for the presence of adhesions; i.e., none=0, mild=1, moderate=2, or severe=3. The small intestines were removed and the length of each was recorded. In each small intestine, a longitudinal incision was made and the interior was examined. The degree and length of the ulcerated area was recorded as a score; i.e., none=0, few=1, multiple=2, or continuous=3. The fecal material was washed away with saline and blotted to remove excess fluid and each small intestine was weighed then processed for histopathology examination to quantitate the degree of inflammation; i.e., 0.0%=0, 1-33%=1, 34-66%=2, 67-100%=3.

[6] = cited from earlier work; for terminal half-life: in humans

CC[C@H](C)[C@H](NC(=O)[C@H](Cc1ccccc1)NC(=O)[C@H](CC(=O)O)NC(=O)[C@H](CCCNC(=N)N)NC(=O)[C@H](C)NC(=O)[C@H](C)NC(=O)[C@H](CC(C)C)NC(=O)[C@H](CC(N)=O)NC(=O)[C@H](CC(=O)O)NC(=O)[C@H](CC(C)C)NC(=O)[C@@H](NC(=O)[C@@H](NC(=O)[C@H](CC(N)=O)NC(=O)[C@H](CCSC)NC(=O)[C@H](CCC(=O)O)NC(=O)[C@H](CC(=O)O)NC(=O)[C@H](CO)NC(=O)[C@H](Cc1ccccc1)NC(=O)[C@H](CO)NC(=O)CNC(=O)[C@H](CC(=O)O)NC(=O)CNC(=O)[C@@H](N)Cc1c[nH]cn1)[C@@H](C)O)[C@@H](C)CC)C(=O)N[C@@H](CC(N)=O)C(=O)N[C@@H](Cc1c[nH]c2ccccc12)C(=O)N[C@@H](CC(C)C)C(=O)N[C@H](C(=O)N[C@@H](CCC(N)=O)C(=O)N[C@H](C(=O)N[C@@H](CCCCN)C(=O)N[C@H](C(=O)N[C@H](C(=O)N[C@@H](CC(=O)O)C(=O)O)[C@@H](C)O)[C@@H](C)CC)[C@@H](C)O)[C@@H](C)CC [GLP2-2G peptide, reference compound]
increase in small intestine length [1]: no significant effects | increase in small intestine weight [1]: 24% | growth in the assayed tissues (colon, small intestine, stomach) ([2]; BID days 1-10): did not induce significant growth | loss of body weight ([2]; SC days 1-10, peptide BID, fusion protein QD, any dose): neither the mice treated with GLP2-2G peptide nor any of the groups of mice treated with any dose of GLP2-2G-XTEN mice showed a reduced loss of body weight | villi height ([3]; fusion protein high (total dose 125 nmol/kg) and low (total dose 75 nmol/kg), FIG. 24B): not significant | mucosal ulceration and mixed cell infiltrate ([3]; three treatment groups): not significant | small intestine weight ([4]; 0.5 mg/kg peptide, both fusion protein groups, compared to diseased control Group 2, FIG. 21C): significant increase | small intestine length ([4]; FIG. 21B): significant increase | ulceration (gross pathology scoring of small intestine) ([4]; FIG. 21D): significant decreases in ulceration | small intestine inflammation score ([4]; FIG. 21F): neither the GLP-2-2G peptide nor the GLP-2-2G-XTEN fusion protein treatments showed a significant effect on inflammation | body weight at termination ([4]; compared to disease control (Group 2), FIG. 21A): did not have a significant increase in body weight | scores of adhesions and transulceration ([4]; compared to diseased control (Group 2), FIG. 21E): significant decreases | TNFα in small intestine (ELISA) ([4]; compared to diseased control Group 2, FIG. 21G): significantly decreased cytokine levels | histopathology: protective effects ([5]; daily bid peptide, once-daily fusion protein): most pronounced in the ileum, but were also seen in the jejunum | adhesions score ([5]; once-daily fusion protein, daily bid peptide, FIG. 22B): reached statistically significant difference | small intestine length ([5]; once-daily fusion protein, daily bid peptide, vs indomethacin-treated vehicle control): reached statistically significant difference | total disease score ([5]; peptide delivered bid, fusion protein delivered qd, vs indomethacin-treated vehicle control): significantly improved scores

CC[C@H](C)[C@H](NC(=O)[C@H](Cc1ccccc1)NC(=O)[C@H](CC(=O)O)NC(=O)[C@H](CCCNC(=N)N)NC(=O)[C@H](C)NC(=O)[C@H](C)NC(=O)[C@H](CC(C)C)NC(=O)[C@H](CC(N)=O)NC(=O)[C@H](CC(=O)O)NC(=O)[C@H](CC(C)C)NC(=O)[C@@H](NC(=O)[C@@H](NC(=O)[C@H](CC(N)=O)NC(=O)[C@H](CCSC)NC(=O)[C@H](CCC(=O)O)NC(=O)[C@H](CC(=O)O)NC(=O)[C@H](CO)NC(=O)[C@H](Cc1ccccc1)NC(=O)[C@H](CO)NC(=O)CNC(=O)[C@H](CC(=O)O)NC(=O)CNC(=O)[C@@H](N)Cc1c[nH]cn1)[C@@H](C)O)[C@@H](C)CC)C(=O)N[C@@H](CC(N)=O)C(=O)N[C@@H](Cc1c[nH]c2ccccc12)C(=O)N[C@@H](CC(C)C)C(=O)N[C@H](C(=O)N[C@@H](CCC(N)=O)C(=O)N[C@H](C(=O)N[C@@H](CCCCN)C(=O)N[C@H](C(=O)N[C@H](C(=O)N[C@@H](CC(=O)O)C(=O)O)[C@@H](C)O)[C@@H](C)CC)[C@@H](C)O)[C@@H](C)CC [teduglutide]
terminal half-life ([6]; reported (Marier 2008)): 192 min | terminal half-life ([6]; reported (Marier 2010)): 54 to 138 min | half life ([6]; reported (Marier 2010)): 54 to 138 min

native GLP-2: human glucagon-like peptide-2, 33 amino acids, HADGSFSDEMNTILDNLAARDFINWLIQTKITD (SEQ ID NO: 2)
half-life (terminal half-life in humans) ([6]; human, in vivo): approximately seven minutes
